In ChEMBL document CHEMBL4364295, “Discovery of a First-in-Class Receptor Interacting Protein 2 (RIP2) Kinase Specific Clinical Candidate, 2-((4-(Benzo[d]thiazol-5-ylamino)-6-(tert-butylsulfonyl)quinazolin-7-yl)oxy)ethyl Dihydrogen Phosphate, for the Treatment of Inflammatory Diseases” (J Med Chem, 2019):
Values after ≈ are worked out from the molar mass of the structure shown.

Key:
[1] = Dose normalized AUC in Sprague-Dawley rat at 20 mg/kg, po using crystalline sample during 7 day dose ranging study by LC/MS/MS analysis; type: ADME, organism-based; conditions: in vivo, 168 h
[2] = Cmax in Sprague-Dawley rat at 60 mg/kg, po using crystalline sample during 7 day dose ranging study by LC/MS/MS analysis; type: ADME, organism-based; design: dose 60 mg/kg, route oral; conditions: in vivo
[3] = AUC in Sprague-Dawley rat at 200 mg/kg, po using crystalline sample during 7 day dose ranging study by LC/MS/MS analysis; type: ADME, organism-based; conditions: in vivo
[4] = Passive permeability in MDCK cells; type: ADME, cell-based, Canis lupus familiaris; conditions: dog, read-out: permeability
[5] = molecular target: Serine/threonine-protein kinase 10 (Homo sapiens) (UniProt O94804); experiment: Inhibition of human STK10 at 1 uM using RLGRDKYKTLRQIRQ as substrate in presence of [gamma-33P]ATP relative to control
Serine/threonine-protein kinase 10 (Homo sapiens), sequence (O94804 whole entry, looked up): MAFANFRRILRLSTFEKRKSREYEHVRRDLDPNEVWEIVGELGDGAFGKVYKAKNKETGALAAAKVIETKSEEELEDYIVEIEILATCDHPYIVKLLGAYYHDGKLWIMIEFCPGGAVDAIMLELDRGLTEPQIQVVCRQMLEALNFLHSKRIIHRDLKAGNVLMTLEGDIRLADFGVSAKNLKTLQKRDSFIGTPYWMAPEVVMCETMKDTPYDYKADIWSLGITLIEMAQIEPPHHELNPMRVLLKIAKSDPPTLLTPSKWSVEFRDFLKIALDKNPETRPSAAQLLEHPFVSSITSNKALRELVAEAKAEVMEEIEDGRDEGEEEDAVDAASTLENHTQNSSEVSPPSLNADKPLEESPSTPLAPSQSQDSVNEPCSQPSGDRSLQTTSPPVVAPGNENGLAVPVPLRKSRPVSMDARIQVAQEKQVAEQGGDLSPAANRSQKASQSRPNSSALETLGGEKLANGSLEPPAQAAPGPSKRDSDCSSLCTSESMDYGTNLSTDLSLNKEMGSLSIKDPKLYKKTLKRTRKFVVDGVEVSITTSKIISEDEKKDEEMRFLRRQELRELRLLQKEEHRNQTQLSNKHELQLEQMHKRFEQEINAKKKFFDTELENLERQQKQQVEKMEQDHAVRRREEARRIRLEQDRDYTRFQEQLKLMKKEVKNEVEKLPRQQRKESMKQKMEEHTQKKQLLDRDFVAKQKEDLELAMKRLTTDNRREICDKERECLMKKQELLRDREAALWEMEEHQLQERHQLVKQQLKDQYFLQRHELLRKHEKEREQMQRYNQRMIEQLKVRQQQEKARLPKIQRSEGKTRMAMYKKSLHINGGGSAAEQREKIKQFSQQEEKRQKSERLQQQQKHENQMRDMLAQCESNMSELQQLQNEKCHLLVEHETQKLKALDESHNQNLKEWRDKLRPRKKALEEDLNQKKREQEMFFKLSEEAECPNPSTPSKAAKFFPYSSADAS

Intestinal mucosa = experiment: Antiinflammatory activity in ulcerative colitis patient derived inflamed intestinal mucosa assessed as reduction in IL1beta production measured after overnight incubation by immunoassay; type: functional, tissue-based; conditions: Homo sapiens
Toll-like receptor 2 = Toll-like receptor 2 (Homo sapiens, UniProt O60603); experiment: Inhibition of TLR2 in HEK293 cells assessed as reduction in Pam2CSK4-induced IL8 production; type: cell-based
Toll-like receptor 2, sequence (O60603 whole entry): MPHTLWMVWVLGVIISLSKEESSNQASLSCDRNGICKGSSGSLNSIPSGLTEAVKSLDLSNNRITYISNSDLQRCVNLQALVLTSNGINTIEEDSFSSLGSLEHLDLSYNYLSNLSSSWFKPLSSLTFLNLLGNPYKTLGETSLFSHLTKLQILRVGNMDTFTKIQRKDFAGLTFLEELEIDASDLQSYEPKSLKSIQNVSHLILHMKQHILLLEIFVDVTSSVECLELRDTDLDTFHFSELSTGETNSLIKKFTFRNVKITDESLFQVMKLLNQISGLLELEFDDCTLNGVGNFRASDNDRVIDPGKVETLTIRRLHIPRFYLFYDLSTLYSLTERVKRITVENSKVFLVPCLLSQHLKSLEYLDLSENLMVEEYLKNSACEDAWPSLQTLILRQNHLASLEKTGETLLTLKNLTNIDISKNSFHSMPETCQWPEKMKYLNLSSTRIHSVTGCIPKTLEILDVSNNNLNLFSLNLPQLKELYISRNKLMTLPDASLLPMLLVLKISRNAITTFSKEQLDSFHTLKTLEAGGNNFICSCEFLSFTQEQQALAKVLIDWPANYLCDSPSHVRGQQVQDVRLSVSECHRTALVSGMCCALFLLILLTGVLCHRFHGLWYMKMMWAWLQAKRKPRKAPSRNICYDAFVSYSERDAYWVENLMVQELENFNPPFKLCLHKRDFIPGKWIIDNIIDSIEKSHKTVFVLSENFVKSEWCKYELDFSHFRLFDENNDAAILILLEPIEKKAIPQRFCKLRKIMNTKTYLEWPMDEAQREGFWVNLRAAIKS

[6] = Inhibition of TNFR in human monocytes assessed as reduction in TNFalpha-induced IL8 production; type: cell-based
Toll-like receptor 9 = molecular target: T1, Toll-like receptor 9 (Homo sapiens, UniProt Q9NR96); experiment: Inhibition of TLR9 in human monocytes assessed as reduction in CpG-ODN-induced IL8 production; type: cell-based
T1 sequence (Q9NR96 whole entry): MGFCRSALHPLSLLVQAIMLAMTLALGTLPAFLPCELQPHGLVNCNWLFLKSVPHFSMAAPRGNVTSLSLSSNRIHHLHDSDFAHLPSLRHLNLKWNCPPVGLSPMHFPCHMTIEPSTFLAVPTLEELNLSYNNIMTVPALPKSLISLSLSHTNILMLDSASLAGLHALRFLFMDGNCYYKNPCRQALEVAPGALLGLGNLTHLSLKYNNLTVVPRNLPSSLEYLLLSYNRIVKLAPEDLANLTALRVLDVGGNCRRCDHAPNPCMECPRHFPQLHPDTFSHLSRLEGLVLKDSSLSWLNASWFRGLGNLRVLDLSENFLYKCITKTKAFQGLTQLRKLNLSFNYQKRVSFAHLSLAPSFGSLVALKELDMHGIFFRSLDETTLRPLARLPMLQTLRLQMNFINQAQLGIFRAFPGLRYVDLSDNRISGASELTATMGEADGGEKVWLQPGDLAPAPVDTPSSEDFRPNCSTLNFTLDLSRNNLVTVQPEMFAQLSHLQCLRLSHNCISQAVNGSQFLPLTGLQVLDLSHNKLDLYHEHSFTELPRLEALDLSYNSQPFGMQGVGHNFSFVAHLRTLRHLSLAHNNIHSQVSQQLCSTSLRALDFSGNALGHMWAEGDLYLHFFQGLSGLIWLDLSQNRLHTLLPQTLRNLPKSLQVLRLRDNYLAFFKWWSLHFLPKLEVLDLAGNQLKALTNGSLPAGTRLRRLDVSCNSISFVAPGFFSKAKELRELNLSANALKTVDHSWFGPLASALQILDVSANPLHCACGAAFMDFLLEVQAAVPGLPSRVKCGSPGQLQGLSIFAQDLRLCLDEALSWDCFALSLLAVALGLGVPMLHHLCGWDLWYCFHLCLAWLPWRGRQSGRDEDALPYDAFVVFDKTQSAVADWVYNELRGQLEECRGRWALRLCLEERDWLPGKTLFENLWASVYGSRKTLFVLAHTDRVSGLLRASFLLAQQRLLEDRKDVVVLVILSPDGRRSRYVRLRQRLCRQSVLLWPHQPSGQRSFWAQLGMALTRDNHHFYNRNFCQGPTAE

[7] = AUC in Beagle dog at 2 mg/kg, po by LC/MS/MS analysis; type: ADME, organism-based, Canis lupus familiaris; conditions: in vivo
[8] = Solubility of the compound in FaSSIF measured after 4 hrs; type: physicochemical
[9] = Prodrug conversion in Sprague-Dawley rat hepatic portal vein assessed as 2-((4-(Benzo[d]thiazol-5-ylamino)-6-(tert-butylsulfonyl)quinazolin-7-yl)oxy)ethanol formation; type: ADME; conditions: in vivo
[10] = Prodrug conversion in human hepatocytes assessed as (2S,3S,4S,5R,6R)-6-(2-(4-(benzo[d]thiazol-5-ylamino)-6-(tert-butylsulfonyl)quinazolin-7-yloxy)ethoxy)-3,4,5-trihydroxytetrahydro-2H-pyran-2-carboxylic acid formation at 20 uM measured after 4 hrs; type: ADME, cell-based, Hepatocyte
[11] = Oral bioavailability in Beagle dog assessed as 2-((4-(Benzo[d]thiazol-5-ylamino)-6-(tert-butylsulfonyl)quinazolin-7-yl)oxy)ethanol level at 2 mg/kg by LC/MS/MS analysis; type: ADME, organism-based, Canis lupus familiaris; conditions: in vivo
[12] = Half life in rat intestinal S9 fraction; type: ADME, subcellular, Intestine
[13] = Prodrug conversion in human hepatocytes assessed as dephosphorylation at 20 uM measured after 4 hrs; type: ADME, cell-based, Hepatocyte
[14] = Prodrug conversion in minipig hepatocytes assessed as 2-(4-(benzo[d]thiazol-5-ylamino)-6-(tert-butylsulfonyl)-1,2,3,4-tetrahydroquinazolin-7-yloxy)ethanol formation at 20 uM measured after 4 hrs; type: ADME, cell-based, Sus scrofa, Hepatocyte; conditions: pig
[15] = Oral bioavailability in Sprague-Dawley rat assessed as 2-((4-(Benzo[d]thiazol-5-ylamino)-6-(tert-butylsulfonyl)quinazolin-7-yl)oxy)ethanol level at 2 mg/kg by LC/MS/MS analysis; type: ADME, organism-based; conditions: in vivo
[16] = Drug uptake in Han Wistar rat colon at 2 mg/kg, iv administered as infusion for 4 hrs; type: ADME, organism-based; conditions: in vivo
[17] = Prodrug conversion in human hepatocytes assessed as 2-(4-(benzo[d]thiazol-5-ylamino)-6-(tert-butylsulfonyl)quinazolin-7-yloxy)acetic acid formation at 20 uM measured after 4 hrs; type: ADME, cell-based, Hepatocyte
[18] = Prodrug conversion in minipig hepatocytes assessed as benzothiazole ring opening at 20 uM measured after 4 hrs; type: ADME, cell-based, Sus scrofa, Hepatocyte; conditions: pig
[19] = AUC in Gottingen minipig assessed as 2-((4-(Benzo[d]thiazol-5-ylamino)-6-(tert-butylsulfonyl)quinazolin-7-yl)oxy)ethanol level at 1 mg/kg, po by LC/MS/MS analysis; type: ADME, organism-based, Sus scrofa; conditions: pig, in vivo
[20] = Prodrug conversion in Han Wistar rat colon assessed as 2-((4-(Benzo[d]thiazol-5-ylamino)-6-(tert-butylsulfonyl)quinazolin-7-yl)oxy)ethanol formation at 2 mg/kg, iv administered as infusion for 4 hrs; type: ADME, organism-based; conditions: in vivo
[21] = Cmax in Beagle dog assessed as 2-((4-(Benzo[d]thiazol-5-ylamino)-6-(tert-butylsulfonyl)quinazolin-7-yl)oxy)ethanol level at 2 mg/kg, po by LC/MS/MS analysis; type: ADME, organism-based, Canis lupus familiaris; design: dose 2 mg/kg, route oral; conditions: in vivo
[22] = Half life in human blood; type: ADME, tissue-based
[23] = Prodrug conversion in minipig hepatocytes assessed as (2S,3S,4S,5R,6R)-6-(2-(4-(benzo[d]thiazol-5-ylamino)-6-(tert-butylsulfonyl)quinazolin-7-yloxy)ethoxy)-3,4,5-trihydroxytetrahydro-2H-pyran-2-carboxylic acid formation at 20 uM measured after 4 hrs; type: ADME, cell-based, Sus scrofa, Hepatocyte; conditions: pig
[24] = Terminal half life in Sprague-Dawley rat assessed as 2-((4-(Benzo[d]thiazol-5-ylamino)-6-(tert-butylsulfonyl)quinazolin-7-yl)oxy)ethanol level at 2 mg/kg, po or 1.1 mg/kg, iv by LC/MS/MS analysis; type: ADME, organism-based; conditions: in vivo
[25] = Half life in human intestinal S9 fraction; type: ADME, subcellular, Intestine

Work on CC(C)(C)S(=O)(=O)c1cc2c(Nc3ccc4scnc4c3)ncnc2cc1OCCO yielded an AUC/dose [1] of 0.44 kg·h/L, a Cmax [2] of 2100 ng/mL and an AUC at 168 h [3] of 41400 ng·h/mL. The Papp [4] was 16.6 ×10⁻⁶ cm/s, the inhibition [5] was 70 to 90% and the Activity (Intestinal mucosa) was “Dose-dependent effect”. For the same molecule, the IC50 (Intestinal mucosa) was 0.01 µM, the IC50 (Toll-like receptor 2) was over 10 µM and the IC50 [6] was over 10 µM. It also gave an IC50 (Toll-like receptor 9) of over 10 µM, an AUC [7] of 1800 ng·h/mL and a solubility at 4 h [8] of 4 µg/mL (≈ 8.72 µM).
In the case of CC(C)(C)S(=O)(=O)c1cc2c(Nc3ccc4scnc4c3)ncnc2cc1OCCOP(=O)(O)O.[CaH2], the Drug metabolism [9] is reported as “Metabolite_Detected”, the Drug metabolism [10] is reported as “Metabolite_Detected” and the F [11] is reported as 100%. The half-life [12] was 3.3 min, the Drug metabolism [13] was “Metabolite_Detected” and the Drug metabolism [14] was “Metabolite_Detected”. For the same molecule, the F [15] was 77%, the Drug uptake [16] was “Not Active” and the Drug metabolism [17] was “Metabolite_Detected”. For the same molecule, the Drug metabolism [18] was “Metabolite_Detected”, the AUC [19] was 1100 ng·h/mL and the Drug metabolism [20] was “Metabolite_Detected”. For the same molecule, the Cmax [21] was 840 ng/mL, the half-life [22] was 25 min and the Drug metabolism [23] was “Metabolite_Detected”. The “beta t1/2” value [24] was 144 min and the half-life [25] was 18.3 min.
